The results in this text go back to PubChem BioAssay AID1963958 (Molecular Pharmacology Branch, DTP, NCI, 2024).

Molecules are shown by their SMILES. “And” between values parts separate entries of the source, which are not always exact repeats. Identical values can stand only once.

This experiment deals with MDA-MB-231 multicell spheroids, viability. Kind of experiment: Anticancer human tumor MDA-MB-231 cell line growth inhibition [PI3K].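 As to all read-outs here: spheroids exposed to agents for seven days before reading.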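 As to viability, T/C: percent of vehicle control luminescence with DMSO treated spheroids as 100%.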 Particulars: for viability, T/C: stronger effect = lower value. The source says:
Combinatorial screen of targeted agents with the PI3K inhibitors inavolisib, alpelisib, duvelisib, and copanlisib in multi-cell type tumor spheroids
A high-throughput screen of multi-cell type tumor spheroids was designed to identify active combinations of targeted small molecules and PI3K pathway inhibitors. Complex spheroids include a stromal component modeled by human endothelial cells (HUVEC) and fibroblasts modeled by human mesenchymal stem cells (MSCs). The concentration ranges selected for each drug and investigational agent were based upon clinically achievable concentrations if the clinical Cmax of the agent was known.
Compounds. The drugs and investigational agents: inavolisib (NSC800729), alpelisib (NSC765974), duvelisib (NSC772469), copanlisib (NSC816437), ipatasertib (NSC767898), afuresertib (NSC778305), talazoparib (NSC767125), sapanisertib (NSC764658), selumetinib (NSC741078), tovorafenib (DAY101, NSC766906), vemurafenib (NSC761431), ravoxertinib (NSC781343), sotorasib (NSC818433), MRTX1133 (NSC 836407), abemaciclib (NSC 768073), palbociclib (NSC758247), venetoclax (NSC 766270), SY5609 (NSC837396), enzalutamide (NSC755605), and darolutamide (NSC825331), were obtained from the National Cancer Institute (NCI) Developmental Therapeutics Program Chemical Repository. The FDA-approved anticancer drug set is available from the NCI Developmental Therapeutics Program. […] The stock solutions were prepared in dimethyl sulfoxide (DMSO, Sigma-Aldrich, St. Louis, MO, cat. D2650) at 800-fold the tested concentration and stored at -70 degrees C prior to their use. All drugs and investigational agents were tested over a range starting from a high concentration at or near the clinical Cmax and decreasing in half-log increments. If the clinical Cmax for an agent had not been determined, the highest concentration tested was 10 microM.
Cell Culture. All cells were maintained in an incubator at 37 degrees C and 5% CO2 with 95% humidity. The PDC lines were cultured according to standard operating procedures established by the NCI PDMR (https://pdmr.cancer.gov/sops/default.htm). All PDCs were thawed and cultured in Matrigel-coated flasks prepared with a working solution of 1X Ham's F-12 nutrient mix, without supplementation (Invitrogen, Waltham, MA, cat. 11765054), 100 U/mL penicillin-streptomycin (Invitrogen, cat. 15140122), and 2.5% Matrigel (Corning Inc., Corning, NY, cat. 354248) for the first three passages. The 354836-022-R-J1-PDC, 475296-252-R-J1-PDC, and 997726-040-R-J2-PDC lines were cultured in 6A media, which includes advanced DMEM/F-12 (Thermo Fisher Scientific, cat. 12634028), 10 mM HEPES (Thermo Fisher Scientific, cat. 15630080), 1X GlutaMAX supplement (Thermo Fisher Scientific, cat. 35050061), 0.1 mg/mL primocin (InvivoGen, San Diego, CA, cat. ant-pm-2), 10% defined fetal bovine serum, heat inactivated (HyClone Laboratories Inc., Logan, UT, cat. SH30070.03HI), 50% L-WRN conditioned media (ATCC, cat. CRL-3276), 1.25 mM N-Acetyl-L-cysteine (Sigma-Aldrich, cat. A9165), 10 mM nicotinamide (Sigma-Aldrich, cat. N0636), 1X B-27 supplement (Thermo Fisher Scientific, cat. 17504044), 1X N-2 supplement (Thermo Fisher Scientific, cat. 17502048), and 10 microM Y-27632 dihydrochloride (Tocris Bioscience, Bristol, United Kingdom, cat. 1254). The 624824-186-R-J2-PDC line was cultured in 6C/Colon 1B media, which includes all 6A media components plus 50 ng/mL human EGF recombinant protein (Thermo Fisher Scientific, cat. PHG0311). […]

Regarding `C#Cc1c(F)ccc2cc(O)cc(-c3ncc4c(N5CC6CCC(C5)N6)nc(OCC56CCCN5CC(F)C6)nc4c3F)c12` (stereo not given), the viability, T/C – broadly, the result in the treated group divided by that in the control group, in per cent – is, setting by setting: (compound 0.0316 µM) 110% [middle of 4 runs]; (compound 0.1 µM) 104% [middle of 4 runs]; (compound 0.316 µM) 100% [middle of 4 runs]; (compound 1 µM) 98.5% [middle of 4 runs]; (compound 10 µM) 59.5% [middle of 4 runs]. For the same molecule, the IC50 (commonly the concentration that inhibits the measured activity by half) (curve of compound) was above 10000 nM.

Turning to `C=CC(=O)N1CCN(c2nc(=O)n(-c3c(C)ccnc3C(C)C)c3nc(-c4c(O)cccc4F)c(F)cc23)C(C)C1` (stereo not given), the viability, T/C by setting is: (compound 0.0316 µM) 109% [middle of 4 runs]; (compound 0.1 µM) 101% [middle of 4 runs]; (compound 0.316 µM) 124% [middle of 4 runs]; (compound 3.16 µM) 136% [middle of 4 runs]; (compound 10 µM) 127% [middle of 4 runs]. The IC50 (curve of compound) was above 10000 nM.

Regarding `CC1(C)CCC(Nc2ncc(C(F)(F)F)c(-c3c[nH]c4c(P(C)(C)=O)c(C#N)ccc34)n2)CN1` (stereo not given), the viability, T/C was 44.8% [middle of 4 runs] (compound 0.0316 µM); 42.5% [middle of 4 runs] (compound 0.1 µM); 44.1% [middle of 4 runs] (compound 0.316 µM); 54.3% [middle of 4 runs] (compound 1 µM); 56.4% [middle of 4 runs] (compound 3.16 µM); 5.5% [middle of 4 runs] (compound 10 µM). The IC50 (curve of compound) was 31.6 nM and 56.2 nM.

Take `Cn1ncc(Cl)c1-c1cc(C(=O)NC(CN)Cc2cccc(F)c2)sc1Cl` (stereo not given): the viability, T/C (compound 0.0316 µM) was 111% [middle of 4 runs]; the viability, T/C (compound 0.1 µM) was 99.8% [middle of 4 runs]; the viability, T/C (compound 0.316 µM) is 95.8% [middle of 4 runs]; the viability, T/C (compound 1 µM) is 77.2% [middle of 4 runs]; the viability, T/C (compound 3.16 µM) is 52.5% [middle of 4 runs]; the viability, T/C (compound 10 µM) is 28.8% [middle of 4 runs]. Where the note is “curve of compound”, the IC50 was 3.47 µM [middle of 4 runs].

For `Cn1nccc1Nc1nccc(-c2ccn(C(CO)c3ccc(Cl)c(F)c3)c(=O)c2)n1` (stereo not given), the viability, T/C (compound 0.0316 µM) was 87% [middle of 4 runs]; the viability, T/C (compound 0.1 µM) is 70.7% [middle of 4 runs]; the viability, T/C (compound 0.316 µM) was 61.5% [middle of 4 runs]; the viability, T/C (compound 1 µM) was 50.8% and 49.5% and 49.4% (2×); the viability, T/C (compound 3.16 µM) was 41.8% [middle of 4 runs]; the viability, T/C (compound 10 µM) was 30.1% [middle of 4 runs]. The IC50 (curve of compound) was 905 nM [middle of 4 runs].

For `Cn1cnc2c(F)c(Nc3ccc(Br)cc3Cl)c(C(=O)NOCCO)cc21` + CC(Nc1ccc2c(c1)OCCn1cc(N3C(=O)OCC3C(F)F)nc1-2)C(N)=O, the IC50 was 674 nM (curve of first compound, second compound 0.00316 µM); 1100 nM (curve of first compound, second compound 0.01 µM); 34.1 nM (curve of first compound, second compound 0.0316 µM); below 9.49 nM (curve of first compound, second compound 0.1 µM); below 9.49 nM (curve of first compound, second compound 0.316 µM); below 9.49 nM (curve of first compound, second compound 1 µM). For the same molecule, the viability, T/C by setting is: (second compound 0.00316 µM, first compound 0.00949 µM) 67.7%; (second compound 0.00316 µM, first compound 0.03 µM) 60%; (second compound 0.00316 µM, first compound 0.0949 µM) 58.2%; (second compound 0.00316 µM, first compound 0.3 µM) 56.2%; (second compound 0.00316 µM, first compound 0.949 µM) 49.4%; (second compound 0.00316 µM, first compound 3 µM) 32%. For the same molecule, the viability, T/C was 56.8% (second compound 0.01 µM, first compound 0.00949 µM); 56.2% (second compound 0.01 µM, first compound 0.03 µM); 54.3% (second compound 0.01 µM, first compound 0.0949 µM); 53.9% (second compound 0.01 µM, first compound 0.3 µM); 53% (second compound 0.01 µM, first compound 0.949 µM); 30.8% (second compound 0.01 µM, first compound 3 µM). For the same molecule, the viability, T/C is 56.1% (second compound 0.0316 µM, first compound 0.00949 µM); 48.1% (second compound 0.0316 µM, first compound 0.03 µM); 46.1% (second compound 0.0316 µM, first compound 0.0949 µM); 44.8% (second compound 0.0316 µM, first compound 0.3 µM); 43.2% (second compound 0.0316 µM, first compound 0.949 µM); 23% (second compound 0.0316 µM, first compound 3 µM). Further, the viability, T/C (second compound 0.1 µM, first compound 0.00949 µM) is 50.9%; the viability, T/C (second compound 0.1 µM, first compound 0.03 µM) was 41.7%; the viability, T/C (second compound 0.1 µM, first compound 0.0949 µM) is 44%; the viability, T/C (second compound 0.1 µM, first compound 0.3 µM) is 42.1%; the viability, T/C (second compound 0.1 µM, first compound 0.949 µM) is 36.3%; the viability, T/C (second compound 0.1 µM, first compound 3 µM) is 16.7%. In addition, the viability, T/C is, setting by setting: (second compound 0.316 µM, first compound 0.00949 µM) 42.5%; (second compound 0.316 µM, first compound 0.03 µM) 42%; (second compound 0.316 µM, first compound 0.0949 µM) 40.5%; (second compound 0.316 µM, first compound 0.3 µM) 39.8%; (second compound 0.316 µM, first compound 0.949 µM) 33.4%; (second compound 0.316 µM, first compound 3 µM) 15.4%. The viability, T/C is 41.1% (second compound 1 µM, first compound 0.00949 µM); 35.1% (second compound 1 µM, first compound 0.03 µM); 38.4% (second compound 1 µM, first compound 0.0949 µM); 37.7% (second compound 1 µM, first compound 0.3 µM); 33.9% (second compound 1 µM, first compound 0.949 µM); 15.3% (second compound 1 µM, first compound 3 µM).
